{"source": "patent US11866695B2", "about": "“Methods and systems and related compositions for mixtures separation with a solid matrix” (CALIFORNIA INSTITUTE OF TECHNOLOGY, priority 2019, dated 2024)", "key": {"[1]": {"test": "Phase separation of compounds mixed at a 1:1 volume ratio", "assay_type": "physicochemical", "set-up": "key: A “2” denotes phase separation into 2 distinct phases; a “1” forms a single phase"}, "[2]": {"tested_on": "λ phage DNA", "test": "Zymo Quick-Viral DNA/RNA kit extraction with additional TPW, qPCR with 2.2× diluted eluent", "assay_type": "biochemical", "experimental": "(§1) qPCR reactions contained 1× Bio-Rad SsoFast Supermix (1725201, Bio-Rad), PCR primers (IDT) at […] each, and were supplemented with nuclease-free water up to 10 μL. Each 96-well plate (thin-wall clear well, HSP9641, Bio-Rad) was sealed (Microseal B, MSB1001, Bio-Rad) and briefly spun in a Mini Plate Spinner Centrifuge (14-100-141, Fisher Scientific). Heating and real-time imaging were performed on the Bio-Rad CFX-96 Touch Real-Time PCR Detection System by heating to 95° C. for 5 min, cycling 40 times between 95° C. for 15 s, 60° C. for 15 s, and 72° C. for 20 s, and taking a melt-curve analysis. For the E. coli DNA dilution experiment, qPCR was run for 60 cycles. Fluorescence readings were taken at the end of each extension step. Quantification cycle (Cq) was determined when the software's automated baseline corrected fluorescence reached 200 RFU.\n(§2) Three different silica-column kits were tested, including: Zymo ZR Viral DNA/RNA Kit (outdated protocol, D7021), Zymo Quick-DNA/RNA Kit (updated protocol, D7021), and the QIAquick PCR Purification Kit (28104, Qiagen). For all silica-column kits, fresh collection tubes were used after each spin and centrifugation speeds were set to 16,000×g. Centrifugation was performed on either an Eppendorf 5415D centrifuge (Eppendorf, Hauppauge, N.Y., USA) or a Thermo Fisher Scientific AccuSpin Micro 17R centrifuge (13-100-676). It was noted that the QIAquick protocol calls for 17,900×g, but instead was run at 16,000×g which was the max speed for the Eppendorf 5415D. For both Zymo kits, 750 μL lysed sample was prepared by mixing 125 μL sample with 125 μL Zymo 2×DNA/RNA Shield and 500 μL Viral DNA/RNA Buffer. For the Zymo ZR Viral DNA/RNA kit, 750 μL lysed sample was centrifuge for 1 min, 500 μL Zymo Viral Wash Buffer was centrifuged for 2 min, and 50 μL nuclease-free water was centrifuged for 30 s into a clean 1.5 mL tube. Optionally, either a dry spin or 300 μL TPW was centrifuged for 2 min in between the Viral Wash Buffer and elution steps. […] For the QIAquick PCR Purification Kit, 125 μL sample was mixed with 625 μL Buffer PB without indicator. 750 μL lysed sample was centrifuged for 30 s, followed by 750 μL Buffer PE for 30 s, a dry spin for 1 min, and 50 μL nuclease-free water for 1 min. Optionally, the dry spin was skipped or the dry spin was replaced with a 300 μL TPW and centrifuged for 1 min.\nOf our TPW candidates, 1-undecanol was selected for further evaluation because (i) it was non-inhibitory for qPCR and LAMP reactions and (ii) as an alcohol, 1-undecanol may function similarly to ethanol- or isopropanol-based washes. In these experiments (testing criteria 1b and 2), a commercially purified λ phage DNA sample was first diluted to 2.5×10^6 copies and ran an NA extraction using the Zymo Quick-DNA/RNA Viral Kit. The experimental procedure either followed the manufacturer protocol or added an additional 300 μL 1-undecanol wash in between the Viral Wash Buffer and elution step. Using the manufacturer's protocol, the resulting eluent is approximately 49 μL, but with the added TPW the resulting eluent is approximately 48 μL aqueous phase and ˜1-2 μL 1-undecanol phase. To emphasize any potential inhibitory effects, a low dilution of eluent was used. For qPCR, a 2.2×dilution was achieved by adding 4.5 μL of eluent, 0.5 μL primers, and 5 μL qPCR reaction mix. For LAMP, a 2×dilution was achieved by adding 5 μL eluent, 0.5 μL primers, and 4.5 μL reaction mix. […] The ˜1-2 μL TPW separates from the aqueous phase and adheres to the walls of the tube, making it is easy to use a pipette to capture just the eluent."}, "[3]": {"tested_on": "qPCR spiked with 5×104 copies λ phage DNA", "test": "qPCR reaction inhibition by dilutions of NA extraction kit buffers", "assay_type": "biochemical", "conditions": "for Avg Cq: 9 replicates, non-detects assigned 40 cycles", "experimental": "as §1\nConfidence intervals were calculated assuming the populations to be normally distributed and using a t statistic. For buffer inhibition experiments, statistical analysis was performed by a 1-tailed unequal variance t-test (N=9) comparing the water condition (control) to each buffer concentration (H1: the mean is delayed). For the subsequent experiments, a 2-tailed unequal variance t-test (H1: the means are different) was used. Non-detects were assigned the maximum possible Cq measurement of 40 cycles or a TTP of 46.7 min to indicate the lack of amplification. Although this approach introduces some bias into the analysis, it is believed this is the best representation for handling non-detects (other alternatives include excluding the non-detects or assigning non-detect values to the average of those that amplified).\nThese two commercial kits in particular were chosen because they both utilize minimal protocols (lysis, wash, elute) with no added steps (e.g. bacterial pellet spins, proteinase K, lysozyme, DNase/RNase, filtration, etc.). Specifically, an experiment was conducted to identify the concentration at which each buffer inhibits qPCR and LAMP. First, buffers were added at half-log dilutions (from 10% down to 0.032%) into λ phage spiked qPCR or LAMP reactions (1 μL diluted buffer, 1 μL template, 8 μL reaction mix)."}, "[4]": {"tested_on": "LAMP reaction mix", "test": "3-step Zymo ZR extraction with viral wash buffer replaced, LAMP with 2× dilution of eluent", "assay_type": "biochemical", "conditions": "wash replaces viral wash buffer; 5 μL eluent in 10 μL", "experimental": "as §2\nExchanging the ethanol wash for a TPW could be useful for applications in which the starting sample is already relatively pure. For this experiment, Zymo ZR kit was used, which has three centrifugation steps: lysis (sample, shield, lysis buffer), wash (ethanol-based viral wash buffer), and elution (water). […] An aliquot of 5 μL of the resulting eluent was added to 5 μL of LAMP reaction mix and amplified at 68° C. Eluent from the manufacturer protocol amplified in 5.7 min. […]"}}, "note": "“Also recorded” adds a separate entry of the source."}
{"smiles": "CCCCCCCCCCCO", "note": "[1-undecanol]", "values": [{"measurement": "Number of phases", "setting": "[1]; mixed 1:1 (volume) with Ethanol", "result": 1}, {"measurement": "Number of phases", "setting": "[1]; mixed 1:1 (volume) with H2O", "result": 2}, {"measurement": "Number of phases", "setting": "[1]; mixed 1:1 (volume) with VWB (80% ethanol v/v)", "result": 1}, {"measurement": "Cq", "setting": "[2]; 2.2× eluent dilution, 3 columns, 9 samples", "result": "18.46±0.22", "unit": "cycles"}, {"measurement": "qPCR reactions amplified", "setting": "[2]; 2.2× eluent dilution, amplified/total", "result": "all reactions amplified"}, {"measurement": "average Cq", "setting": "[2]; 27 reactions (9 columns)", "result": "19.7±2.5", "unit": "cycles"}, {"measurement": "wells with Cq between 18-22 cycles", "setting": "[2]; 27 reactions (9 columns)", "result": "25/27"}, {"measurement": "wells with a delayed Cq", "setting": "[2]; 27 reactions (9 columns)", "result": "2/27"}]}
{"smiles": "CCO", "note": "[Ethanol, ethanol]", "values": [{"measurement": "Avg Cq", "setting": "[3]; 0.03% buffer in qPCR", "result": 20.1, "unit": "cycles"}, {"measurement": "ΔCq", "setting": "[3]; 0.03% buffer vs water condition (0%)", "result": 0.0, "unit": "cycles"}, {"measurement": "Avg Cq", "setting": "[3]; 0.1% buffer in qPCR", "result": 20.2, "unit": "cycles"}, {"measurement": "ΔCq", "setting": "[3]; 0.1% buffer vs water condition (0%)", "result": 0.1, "unit": "cycles"}, {"measurement": "Avg Cq", "setting": "[3]; 0.32% buffer in qPCR", "result": 20.2, "unit": "cycles"}, {"measurement": "ΔCq", "setting": "[3]; 0.32% buffer vs water condition (0%)", "result": 0.1, "unit": "cycles"}, {"measurement": "Avg Cq", "setting": "[3]; 1% buffer in qPCR", "result": 20.1, "unit": "cycles"}, {"measurement": "ΔCq", "setting": "[3]; 1% buffer vs water condition (0%)", "result": 0.0, "unit": "cycles"}, {"measurement": "Avg Cq", "setting": "[3]; 3.2% buffer in qPCR", "result": 20.6, "unit": "cycles"}, {"measurement": "ΔCq", "setting": "[3]; 3.2% buffer vs water condition (0%)", "result": 0.5, "unit": "cycles"}, {"measurement": "Avg Cq", "setting": "[3]; 10% buffer in qPCR", "result": 27.5, "unit": "cycles"}, {"measurement": "ΔCq", "setting": "[3]; 10% buffer vs water condition (0%)", "result": 7.4, "unit": "cycles"}, {"measurement": "LAMP performance of eluent", "setting": "[4]", "result": "slightly outperforms the viral wash buffer; also recorded: performed slightly better (earlier TTP) than the viral wash buffer"}]}
